Source: PMC7811981 (European Journal of Drug Metabolism and Pharmacokinetics, 2020)
Read-outs that look alike come from different tables or passages of the source.

What was measured:
[1] = phase I studies; cited from earlier work
P-gp = format: in vivo, healthy adults (human); settings: human, not told, po
[2] = format: in vivo, healthy adults (human); settings: for AUC(0-inf) / Cmax / Tmax / half-life / AUC(0-t): human, plasma; for AUC(0-t): Period 2: omadacycline with verapamil, linear mixed-effect model
P-glycoprotein (P-gp) = settings: cited from earlier work
[3] = Safety and tolerability assessments; format: in vivo, healthy adults (human); settings: for Safety and tolerability: healthy adults
[4] = period 2, single oral 240 mg verapamil ER; data not shown
[5] = Period 2/Period 1 (with verapamil / alone)

For `CN(C)c1cc(CNCC(C)(C)C)c(O)c2c1C[C@H]1C[C@H]3[C@H](N(C)C)C(O)=C(C(N)=O)C(=O)[C@@]3(O)C(O)=C1C2=O` [Omadacycline], the “Exposure of 300 mg oral dose versus 100 mg IV dose” value [1] is given as “comparable exposure”, the bioavailability (P-gp) is given as about 43.1% and the “λz terminal phase rate constant, arithmetic mean (arithmetic coefficient of variation)” value ([2]; Period 1: omadacycline alone, 300 mg oral, N = 12) is given as 0.1 (11.2) l/h. For the same compound, the “AUC0–24, ratio of geometric LS mean” value [2, 5] was 118.5%, the “AUC0–inf, ratio of geometric LS mean” value [2, 5] was 124.6% and the “AUC0–t, ratio of geometric LS mean” value [2, 5] was 118.6%. For the same compound, the “Cmax, ratio of geometric LS mean” value [2, 5] was 113.6%, the “λz terminal phase rate constant, arithmetic mean (arithmetic coefficient of variation)” value ([2]; Period 2: omadacycline with verapamil ER 240 mg, N = 10) was 0.05 (10.7) l/h and the “Increase in systemic exposure to omadacycline (AUC0–24, AUC0–t, AUC0–inf, Cmax)” value ([2]; after single oral 240 mg verapamil ER compared with omadacycline alone) was 14–25%. For the same compound, the “Plasma concentrations measurable up to (last sampling time)” value ([2]; both treatment periods, all instances) was 24 h, the “Time postdose within which Cmax was attained (visual inspection)” value ([2]; both treatment periods, mean plasma concentration-time profiles) was at most 3 h and the AUC(0-inf) ([2]; oral) was 10800 ng·h/mL. For the same compound, the Cmax ([2]; oral) was 607 ng/mL, the AUC(0-inf) ([2]; oral, 240 mg) was 10800 ng·h/mL and the Cmax ([2]; oral, 240 mg) was 596 ng/mL. For the same compound, the Tmax ([2]; oral, 240 mg) was 2.8 h, the half-life ([2]; oral, 240 mg) was 14 h and the AUC(0-inf) ([2]; oral, 300 mg) was 8690 ng·h/mL. For the same compound, the Cmax ([2]; oral, 300 mg) was 534 ng/mL, the AUC(0-t) ([2]; oral, AUC0–24, geometric LS mean, N = 10) was 7340 ng·h/mL and the AUC(0-t) ([2]; oral, AUC0–t, geometric LS mean, N = 10) was 7340 ng·h/mL. For the same compound, the AUC(0-inf) ([2]; po, 300 mg) was 8690 ng·h/mL, the Cmax ([2]; po, 300 mg) was 534 ng/mL and the Tmax ([2]; po, 300 mg) was 2.8 h. The half-life ([2]; po, 300 mg) was 12.7 h, the “AUC measures (AUC0–24, AUC0–t, AUC0–inf) higher than omadacycline alone” value ([2]; period 2 (after verapamil) vs period 1) was 18–25% and the “Increase in geometric mean of AUC0–inf” value ([2]; verapamil dosing compared with omadacycline alone) was 18–25%. The “Increase in bioavailability by inhibition of P-gp (as much as)” value ([2]; with verapamil, relative increase) was at most 25.0%, the P-gp interaction (P-glycoprotein (P-gp); in vitro studies) was “substrate, but not as an inhibitor” and the “Propensity to permeate across the gastrointestinal (GI) tract” value (P-glycoprotein (P-gp); in vitro studies) was “low propensity to permeate”. For the same compound, the P-gp interaction (P-glycoprotein (P-gp); in vitro transporter studies in CaCo cells) was “substrate of P-gp (but not an inhibitor or inducer)”, the “Clinical laboratory test results, vital sign measurements, physical examination findings, 12-lead ECG results” value ([3]; omadacycline alone and with verapamil ER) was “no clinically relevant findings” and the Safety and tolerability ([3]; single oral 300 mg omadacycline plus 240 mg verapamil ER) was “safe and well tolerated”. The Safety and tolerability ([3]; single oral dose 300 mg omadacycline alone) was “safe and well tolerated”.
In the case of `COc1ccc(CCN(C)CCCC(C#N)(c2ccc(OC)c(OC)c2)C(C)C)cc1OC` (centres unmarked) [verapamil], the “Plasma concentrations measurable from 2 h after administration up to (last sampling time)” value [4] is reported as 24 h.
